Laboratory results: patent US7741540B2, “Compositions comprising D-amino acids” (BASF Plant Science GmbH, priority 2002, dated 2010)
“Also recorded” adds a separate entry of the source. Each block holds one compound with its values, some of them ahead of it.

How the values were obtained:
[1] = tested on: Arabidopsis thaliana expressing Rhodotorula gracilis D-amino acid oxidase (dao1); assay: Growth of plants expressing D-amino acid oxidase on D-amino acid media in sterile agar culture; type: in vivo
Text: Transgenic plants expressing D-amino acid oxidase were constructed essentially in the same way as the dsdA plants described above, with the following modifications: The dao1 gene (EC: 1.4.3.3 (SEQ ID NO: 6): NCBIU60066 (SEQ ID NO: 5)) from the yeast Rhodotorula gracilis (Rhodosporidium toruloides) was cloned with PCR with a cDNA library prepared from yeast grown on D-alanine containing medium to induce expression of the target gene, as a template. PCR primers were 5′-[…] (SEQ ID NO: 3) and 5′-[…] (SEQ ID NO: 4).
PCR was also performed with another set of primers, with one primer flanking the 5′ end of the open reading frame as set out above and a 3′ primer excluding the last […] nucleotides. The last nine nucleotides encode the signal peptide SKL, which guides the protein to the peroxisome sub-cellular organelle.
The resulting amplified sequences encode proteins which have the same amino acid sequence but which differ in the respect of their location in the cell. The truncated polypeptide, without the signal peptide, is expressed in the cytosol, while the full-length polypeptide is expressed in the peroxisome.
Construction of Arabidopsis thaliana plants expressing two variants of Rhodotorula gracilis D-amino acid oxidase were made as described above.

[2] = tested on: wild type Arabidopsis; assay: Growth of wild type plants on D-Asn or D-ile in sterile agar culture; type: in vivo, Arabidopsis thaliana
[3] = tested on: Hordeum vulgare; assay: Growth of wild-type seedlings on nitrate free agar media amended with D-serine; type: in vivo; details: two to three weeks, 0, 0.3, 3 and 30 mM tested
Procedure: (§1) A. thaliana seeds from non-transformed plants and D-Serine ammonia-lyase transformed plants were surface sterilised with 70% ethanol and 0.1% Tween 80 for 10 minutes and rinsed briefly in 95% ethanol. 10 seeds were sown in each plate and the plates where thereafter sealed with gas permeable tape. The growth medium was half-strength MS (Murashige, T. & Skoog, F. Physiol Plant 15, 310-313 (1962)) (with 0.5% w/v sucrose and 0.8% w/v agar) with nitrogen either excluded or included as 3 mM nitrate. Filter sterilised D-serine was added to the medium after autoclaving. Plants were grown for 14 days after germination with a 16 h photoperiod at 24° C. Plants were extracted from the plates, washed three times in 0.5 mM CaCl2 and thereafter dried at 40° C. for 48 hours before dry weight measurements. The N content was determined on dried plants using an elemental analyser (PerkinElmer 2400 CHN). Biomass and nitrogen content were measured on a per plate basis and there were 10 plants per plate. Six independent transgenic lines were evaluated for their capacity to grow on D-serine and no substantial difference was noticed among the lines, although dsdA transcript levels varied substantially according to northern blot analyses. Seeds from Solanum esculentum, Hordeum vulgare, Zea mays, Populus tremuloides, Nicotiana tabacum and Arabidopsis thaliana were surface sterilised and grown for two to three weeks on agar media identical to the nitrate free media described above and amended with 0, 0.3, 3 and 30 mM D-serine.

[4] = tested on: Lycopersicon esculentum; assay: as above; type: in vivo; details: two to three weeks, 0, 0.3, 3 and 30 mM tested
Procedure: as §1

[5] = tested on: Nicotiana tabacum; assay: as above; type: in vivo; details: two to three weeks, 0, 0.3, 3 and 30 mM tested
Procedure: as §1

[6] = tested on: Populus tremuloides; assay: as above; type: in vivo; details: two to three weeks, 0, 0.3, 3 and 30 mM tested
Procedure: as §1

[7] = tested on: Zea mays; assay: as above; type: in vivo; details: two to three weeks, 0, 0.3, 3 and 30 mM tested
Procedure: as §1

[8] = tested on: wild-type Arabidopsis thaliana; assay: Growth of wild-type plants on sterile agar supplied with D-serine; type: in vivo; details: for toxicity to wild-type plants: FIG. 3, FIG. 5
Procedure: as §1, with “D-serine. […] For A. thaliana, clear growth inhibition is observed at a concentration of 0.3 mM D-serine in the growth medium and total growth inhibition occurs at 3 mM (FIG. 3). Transgenic Arabidopsis thaliana plants expressing the gene encoding D-serine dehydratase were grown sterile alongside wild type plants on agar for 20 days on standard MS medium supplemented with varying concentrations of D-serine as the sole N source (30 mM, 3 mM, 0.3 mM) along with a control lacking any nitrogen.” for “D-serine.”

[9] = tested on: Somatic embryonic cell suspension cultures of Picea abies; assay: Somatic embryonic cell suspension cultures grown on a range of D-serine concentrations; type: cell-based; details: 0, 0.3, 3 and 30 mM tested
Procedure: Somatic embryonic cell suspension cultures of Picea abies were grown on a range of D-serine concentrations; 0, 0.3, 3 and 30 mM D-serine. D-serine was lethal to cells at and above 3 mM.

[10] = tested on: dsdA-transformed embryos of Picea abies; assay: Selection of dsdA-transformed embryos on D-serine medium; type: cell-based
Procedure: The transformation method used was particle bombardment of a cell suspension. Somatic embryonic cell suspension cultures of Picea abies were grown on a range of D-serine concentrations; 0, 0.3, 3 and 30 mM D-serine. D-serine was lethal to cells at and above 3 mM.

[11] = tested on: transgenic Arabidopsis thaliana expressing E. coli D-serine ammonia-lyase (dsdA); assay: Growth and N content of transgenic plants expressing dsdA on D-serine media; type: in vivo
Text: The E. coli gene dsdA (D-serine dehydratase (D-serine deaminase) [EC:4.3.1.18 (SEQ ID NO: 8)] NCBI accession number J01603 (SEQ ID NO: 7)) was amplified by PCR using primers 5′-[…] (SEQ ID NO: 1) and 5′-[…] (SEQ ID NO: 2). The PCR product was sub-cloned into pT-easy (Promega) and sequenced with DYEnamics cycle sequencing kit, (Amersham Pharmacia biotech). Alignment analysis with the database sequence confirmed successful full length cloning of dsdA. The clone was subsequently ligated into the BamH1 site of the CaMV 35S expression cassette of the binary vector pPCV702Km, which is a disarmed Ti-plasmid of Agrobacterium tumefaciens, to generate the vector pPCV702:dsdA. Restriction analysis of this vector with endonuclease confirmed orientation of insertion.
A. thaliana, ecotype Col-0, plants were transformed with Agrobacterium tumefaciens strain (GV3101:pMP90 RK) through vacuum infiltration (Clough, S. J. & Bent, A. F. Plant Journal. 16, 735-743 (1998)). Transformants were selected on kanamycin containing plates, and molecularly confirmed using northern blots. All analyses were performed using lines homozygous for the transgenic trait.
as §1, with “analyses.” for “analyses. Seeds from Solanum esculentum, Hordeum vulgare, Zea mays, Populus tremuloides, Nicotiana tabacum and Arabidopsis thaliana were surface sterilised and grown for two to three weeks on agar media identical to the nitrate free media described above and amended with 0, 0.3, 3 and 30 mM D-serine.”
Transgenic Arabidopsis thaliana plants expressing the gene encoding D-serine dehydratase were grown sterile alongside wild type plants on agar for 20 days on standard MS medium supplemented with varying concentrations of D-serine as the sole N source (30 mM, 3 mM, 0.3 mM) along with a control lacking any nitrogen.

[12] = tested on: Arabidopsis seedlings grown on soil; assay: Selection of transgenic seedlings on soil by spraying D-Serine; type: in vivo, Arabidopsis thaliana; details: 30 mM sprayed three times during one week
[13] = tested on: wild type poplar; assay: Shoot formation on shoot inducing media with D-Ser; type: in vivo
[14] = tested on: wild type tobacco; assay: Shoot formation on shoot inducing media with D-Ser; type: in vivo
[15] = tested on: poplar transformed with dsdA; assay: Resistance of dsdA-transformed plants to D-Ser; details: in vivo
Text: (§2) Poplar and tobacco were transformed using the same vector and transformation protocol described above for the transformation of Arabidopsis.

[16] = tested on: tobacco transformed with dsdA; assay: Resistance of dsdA-transformed plants to D-Ser; details: in vivo
Text: as §2

SMILES: NC(=O)C[C@@H](N)C(=O)O [D-Asn]
- growth / germination of D-amino oxidase expressing plants ([1]; 30 mM, sterile agar culture): total inhibition of growth; also recorded: inhibited significantly more than the wild-type
- growth of wild type plants ([2]; 30 mM, sterile agar culture): only partially retarded

SMILES: C[C@@H](N)C(=O)O [D-alanine]
- effect of expressed D-amino acid oxidase on toxicity of the D-amino acid ([1]; in vivo): alleviate the toxicity

- hindering of growth of transgenic plants expressing dao1 (compared with D-Asn) ([1]; in vivo): even more effective in hindering growth
SMILES: CC[C@@H](C)[C@@H](N)C(=O)O [D-ile]
- wild type growth with increasing concentration ([2]; examined interval 0.3 to 30 mM): increase in growth
- inhibitory effect on wild type plants ([2]; in vivo): no visible inhibitory effect

SMILES: N[C@H](CO)C(=O)O [D-serine]
- D-serine concentration in the media at which growth was inhibited [3]: 30 mM
- D-serine concentration in the media at which growth was inhibited [4]: 3 mM
- D-serine concentration in the media at which growth was inhibited [5]: 3 mM
- D-serine concentration in the media at which growth was inhibited [6]: 3 mM
- D-serine concentration in the media at which growth was inhibited [7]: 30 mM
- growth of wild-type plants with increasing D-serine concentration ([8]; D-serine as sole N source, 0.3, 3, 30 mM (FIG. 3)): No increase
- concentration in the growth medium at which clear growth inhibition is observed ([8]; FIG. 3): 0.3 mM
- concentration in the growth medium at which total growth inhibition occurs ([8]; FIG. 3): 3 mM
- toxicity to wild-type plants [8]: toxic effect
- toxicity to wild-type plants ([8]; listed as D-ser): shows toxicity
- growth and nitrogen content of wild-type plants with increasing D-serine concentration ([8]; in the presence of a basic level of nitrate (3 mM) (FIG. 5)): opposite response
- D-serine concentration in the media at which growth was inhibited ([8]; nitrate free agar, two to three weeks, 0, 0.3, 3 and 30 mM tested): 3 mM
- concentration lethal to cells [9]: ≥ 3 mM
- D-serine concentration of medium on which transformed embryos could be selected [10]: 3 mM
- N concentration of plants compared with plants grown on 3 mM nitrate ([11]; 3 mM D-serine, ANOVA p<0.0001): significantly lower
- growth and N content of transgenic plants with increasing D-serine concentration ([11]; D-serine as sole N source, p<0.0001 (FIG. 4)): increase significantly
- growth on D-serine compared with nitrate at equal concentration ([11]; FIG. 4(top) and 5(top)): lower growth
- growth and nitrogen content of transgenic plants with increasing D-serine concentration ([11]; in the presence of a basic level of nitrate (3 mM), p<0.0001 (FIG. 5)): increased significantly
- toxicity symptoms in transgenic plants ([11]; within the observed range of D-Ser): no toxicity symptoms
- selection of transgenic plants by spraying [12]: Successful selection
- effect of expressed D-amino acid oxidase on toxicity of the D-amino acid ([1]; in vivo): alleviate the toxicity
- concentration sufficient to stop all shoot formation [13]: 3 mM
- concentration sufficient to stop all shoot formation [14]: 30 mM
- concentration to which transformed plants were resistant [15]: exceeding 30 mM
- concentration to which transformed plants were resistant [16]: exceeding 30 mM
